According to ChEMBL document CHEMBL1138566, “Synthesis of novel benzo[h]quinolines: wound healing, antibacterial, DNA binding and in vitro antioxidant activity” (Eur J Med Chem, 2009):
Converted amounts (≈) assume the structure as drawn. The source made the active and inactive calls. The calls are words filed in the database; no cut-off is given here.

What was measured:
[1] = Antioxidant activity assessed as inhibition of phenazine methosulphate-NADH coupling reaction-induced superoxide anion production at 60 ug/ml; format: functional; set-up: scale not given: the % may be the effect or the level left
[2] = Antioxidant activity assessed as hydrogen peroxide scavenging activity at 60 ug/ml by spectrophotometry; format: functional
[3] = tested on: Radical scavenging activity; test: Antioxidant activity assessed as DPPH radical scavenging activity; format: functional
Klebsiella pneumoniae [4] = test: Antibacterial activity against Klebsiella pneumoniae MTCC 618 after 48 hrs by microdilution method; format: functional; conditions: MTCC 618, 48 h
Escherichia coli [5] = test: Antibacterial activity against Escherichia coli after 48 hrs by microdilution method; format: functional
Staphylococcus aureus [6] = test: Antibacterial activity against Staphylococcus aureus ATCC 29737 after 48 hrs by microdilution method; format: functional; conditions: ATCC 29737, 48 h
Streptococcus pyogenes [7] = test: Antibacterial activity against Streptococcus pyogenes NCIM 2608 after 48 hrs by microdilution method; format: functional; conditions: NCIM 2608, 48 h
Bacillus subtilis [8] = test: Antibacterial activity against Bacillus subtilis NCIM 2010 by microdilution method; format: functional
Escherichia coli [9] = test: Antibacterial activity against Escherichia coli at 10 ug/ml after 48 hrs by agar well diffusion method; conditions: read-out: DIZ
Pseudomonas aeruginosa [10] = test: microbe, parasite or virus in culture; conditions: ATCC 20852, 48 h, read-out: DIZ
Description: Antibacterial activity against Pseudomonas aeruginosa ATCC 20852 at 10 ug/ml after 48 hrs by agar well diffusion method

Klebsiella pneumoniae [11] = test: microbe, parasite or virus in culture; conditions: MTCC 618, 48 h, read-out: DIZ
Description: Antibacterial activity against Klebsiella pneumoniae MTCC 618 at 10 ug/ml after 48 hrs by agar well diffusion method

Staphylococcus aureus [12] = test: microbe, parasite or virus in culture; conditions: ATCC 29737, 48 h, read-out: DIZ
Description: Antibacterial activity against Staphylococcus aureus ATCC 29737 at 10 ug/ml after 48 hrs by agar well diffusion method

Streptococcus pyogenes [13] = test: microbe, parasite or virus in culture; conditions: NCIM 2608, 48 h, read-out: DIZ
Description: Antibacterial activity against Streptococcus pyogenes NCIM 2608 at 10 ug/ml after 48 hrs by agar well diffusion method

Bacillus subtilis [14] = test: microbe, parasite or virus in culture; conditions: NCIM 2010, 48 h, read-out: DIZ
Description: Antibacterial activity against Bacillus subtilis NCIM 2010 at 10 ug/ml after 48 hrs by agar well diffusion method

Rattus norvegicus [15] = test: Wound healing activity in Wistar albino rat dorsal back excision wound model assessed as epithelization period applied topically as cream base ointment over 100/500mm'2 scar; format: functional
Rattus norvegicus [16] = test: Wound healing activity in Wistar albino rat dorsal back incision wound model assessed as tensile strength applied topically as cream base ointment over 100/500 mm'2 scar by tensiometry; format: functional
Rattus norvegicus [17] = test: Wound healing activity in Wistar albino rat dorsal back excision wound model assessed as wound closure applied topically as 1 %W/W gel base ointment measured after 4 days; format: functional
Rattus norvegicus [18] = test: Wound healing activity in Wistar albino rat dorsal back excision wound model assessed as wound closure applied topically as 1 %W/W gel base ointment measured after 8 days; format: functional
Rattus norvegicus [19] = test: Wound healing activity in Wistar albino rat dorsal back excision wound model assessed as wound closure applied topically as 1 %W/W gel base ointment measured after 12 days; format: functional, organism-based
Rattus norvegicus [20] = test: Wound healing activity in Wistar albino rat dorsal back excision wound model assessed as wound closure applied topically as 1 %W/W gel base ointment measured after 16 days; format: functional
Rattus norvegicus [21] = test: Wound healing activity in Wistar albino rat dorsal back excision wound model assessed as wound closure applied topically as cream base ointment over 100/500 mm'2 scar measured after 4 days; format: functional
Rattus norvegicus [22] = test: Wound healing activity in Wistar albino rat dorsal back excision wound model assessed as wound closure applied topically as cream base ointment over 100/500 mm'2 scar measured after 8 days; format: functional
Rattus norvegicus [23] = test: Wound healing activity in Wistar albino rat dorsal back excision wound model assessed as wound closure applied topically as cream base ointment over 100/500 mm'2 scar measured after 12 days; format: functional
Rattus norvegicus [24] = test: Wound healing activity in Wistar albino rat dorsal back excision wound model assessed as wound closure applied topically as cream base ointment over 100/500 mm'2 scar measured after 16 days; format: functional
Pseudomonas aeruginosa [25] = test: Antibacterial activity against Pseudomonas aeruginosa ATCC 20852 after 48 hrs by microdilution method; format: functional; conditions: ATCC 20852, 48 h
Pseudomonas aeruginosa [26] = test: Antibacterial activity against Pseudomonas aeruginosa ATCC 20852 at 10 mg/ml after 48 hrs by agar well diffusion method; format: functional; conditions: ATCC 20852, 48 h, read-out: DIZ
Klebsiella pneumoniae [27] = test: Antibacterial activity against Klebsiella pneumoniae MTCC 618 at 10 mg/ml after 48 hrs by agar well diffusion method; format: functional; conditions: MTCC 618, 48 h, read-out: DIZ
Escherichia coli [28] = test: Antibacterial activity against Escherichia coli at 10 mg/ml after 48 hrs by agar well diffusion method; format: functional; conditions: read-out: DIZ
Staphylococcus aureus [29] = test: Antibacterial activity against Staphylococcus aureus ATCC 29737 at 10 mg/ml after 48 hrs by agar well diffusion method; format: functional; conditions: ATCC 29737, 48 h, read-out: DIZ
Streptococcus pyogenes [30] = test: Antibacterial activity against Streptococcus pyogenes NCIM 2608 at 10 mg/ml after 48 hrs by agar well diffusion method; format: functional; conditions: NCIM 2608, 48 h, read-out: DIZ
Bacillus subtilis [31] = test: Antibacterial activity against Bacillus subtilis NCIM 2010 at 10 mg/ml after 48 hrs by agar well diffusion method; format: functional; conditions: NCIM 2010, 48 h, read-out: DIZ
Nucleic Acid [32] = test: Binding affinity to DNA assessed as reduction of Uv-vis spectra absorption at 293 nm wavelength at 0.5 uM by DNA intercalation assay; format: nucleic-acid assay; set-up: scale not given: the % may be the effect or the level left
Nucleic Acid [33] = test: Intrinsic binding affinity to DNA assessed as hypochromism by absorption spectral analysis; format: nucleic-acid assay
Calf thymus DNA [34] = test: Binding affinity to calf thymus DNA assessed as melting temperature; format: nucleic-acid assay; conditions: Bos taurus
Calf thymus DNA [35] = test: Binding affinity to calf thymus DNA assessed as increase in viscosity at 100 uM; format: nucleic-acid assay; conditions: Bos taurus
[36] = Antioxidant activity assessed as increase in reducing power at 20 to 60 ug/mL; format: functional
Rattus norvegicus [37] = test: Wound healing activity in Wistar albino rat dorsal back excision wound model applied topically as cream base ointment over 100/500 mm'2 scar measured after 18 days; format: functional
Rattus norvegicus [38] = test: Wound healing activity in Wistar albino rat dorsal back excision wound model applied topically as 1 %W/W gel base ointment measured after 18 days; format: functional
Nucleic Acid [39] = test: Intrinsic binding affinity to DNA by absorption spectral analysis; format: nucleic-acid assay
[40] = Antioxidant activity assessed as hydrogen peroxide scavenging activity by spectrophotometry; format: functional
Nucleic Acid [41] = test: Binding affinity to DNA assessed as reduction of Uv-vis spectra absorption at 312 nm wavelength at 0.5 uM by DNA intercalation assay; format: nucleic-acid assay; set-up: scale not given: the % may be the effect or the level left

With `COc1ccc(O)c(C(C)(C)C)c1.COc1ccc(O)cc1C(C)(C)C` the Activity [1] was 81%, the Activity [2] was “Active” and the Activity [3] was 64%.

Work on `O=C(O)c1cn(C2CC2)c2cc(N3CCNCC3)c(F)cc2c1=O` [CIPROFLOXACIN] yielded an MIC (Klebsiella pneumoniae [4]) of 12.5 µg/mL (≈ 37.7 µM), an MIC (Escherichia coli [5]) of 6.5 µg/mL (≈ 19.6 µM) and an MIC (Staphylococcus aureus [6]) of 6.75 µg/mL (≈ 20.4 µM). The MIC (Streptococcus pyogenes [7]) was 6.25 µg/mL (≈ 18.9 µM), the MIC (Bacillus subtilis [8]) was 12.5 µg/mL (≈ 37.7 µM) and the zone of inhibition at 10 µg/mL (Escherichia coli [9]) was 19.2 mm. For the same compound, the zone of inhibition at 10 µg/mL (Pseudomonas aeruginosa [10]) was 23.3 mm, the zone of inhibition at 10 µg/mL (Klebsiella pneumoniae [11]) was 20.1 mm and the zone of inhibition at 10 µg/mL (Staphylococcus aureus [12]) was 21.4 mm. For the same compound, the zone of inhibition at 10 µg/mL (Streptococcus pyogenes [13]) was 20.8 mm and the zone of inhibition at 10 µg/mL (Bacillus subtilis [14]) was 21.3 mm.

Compound `NC(=O)N/N=C/c1ccc([N+](=O)[O-])o1` [NITROFURAZONE] has an Activity (Rattus norvegicus [15]) of 14 days, an Activity (Rattus norvegicus [16]) of 599 g and an Activity (Rattus norvegicus [17]) of 55.68%. The Activity (Rattus norvegicus [18]) was 87.21%, the Activity (Rattus norvegicus [19]) was 97.68% and the Activity (Rattus norvegicus [20]) was 100%.

`O=Cc1cc2ccc3ccccc3c2nc1S` showed an Activity (Rattus norvegicus [21]) of 45.35%, an Activity (Rattus norvegicus [22]) of 75.63% and an Activity (Rattus norvegicus [23]) of 85.94%. It also gave an Activity (Rattus norvegicus [24]) of 96.24%, an Activity (Rattus norvegicus [15]) of 18 days and an Activity (Rattus norvegicus [16]) of 544.83 g. For the same compound, the MIC (Pseudomonas aeruginosa [25]) was 16 µg/mL (≈ 66.9 µM), the MIC (Klebsiella pneumoniae [4]) was 12.5 µg/mL (≈ 52.2 µM) and the MIC (Escherichia coli [5]) was 32 µg/mL (≈ 134 µM). It also gave an MIC (Staphylococcus aureus [6]) of 11 µg/mL (≈ 46 µM), an MIC (Streptococcus pyogenes [7]) of 12.5 µg/mL (≈ 52.2 µM) and an MIC (Bacillus subtilis [8]) of 16.2 µg/mL (≈ 67.9 µM). For the same compound, the zone of inhibition at 10000 µg/mL (Pseudomonas aeruginosa [26]) was 11.6 mm, the zone of inhibition at 10000 µg/mL (Klebsiella pneumoniae [27]) was 13.6 mm and the zone of inhibition at 10000 µg/mL (Escherichia coli [28]) was 12.3 mm. The zone of inhibition at 10000 µg/mL (Staphylococcus aureus [29]) was 19.4 mm, the zone of inhibition at 10000 µg/mL (Streptococcus pyogenes [30]) was 17.4 mm and the zone of inhibition at 10000 µg/mL (Bacillus subtilis [31]) was 15.2 mm. It also gave an Activity (Nucleic Acid [32]) of 20.3%, an Activity (Nucleic Acid [33]) of 20.5% and a Tm (Calf thymus DNA [34]) of 60 °C. For the same compound, the Activity (Calf thymus DNA [35]) was “Active”, the Activity [1] was 65% and the Activity [2] was 68%. The Activity [3] was 55%, the Activity [36] was “Active” and the Activity (Rattus norvegicus [37]) was 100%. For the same compound, the Activity (Rattus norvegicus [38]) was 95.71%, the Kb (Nucleic Acid [39]) was 2.7 ×10⁵ /M and the Activity [40] was “Dose-dependent effect”.

In the case of `Cc1cc(C(C)(C)C)c(O)c(C(C)(C)C)c1`, the Activity [1] is reported as 51%, the Activity [2] is reported as “Active” and the Activity [3] is reported as 48%.

`O=Cc1cc2ccc3ccccc3c2nc1[SeH]` showed an Activity (Rattus norvegicus [21]) of 53.65%, an Activity (Rattus norvegicus [22]) of 85.26% and an Activity (Rattus norvegicus [23]) of 95.7%. It also gave an Activity (Rattus norvegicus [24]) of 100%, an Activity (Rattus norvegicus [15]) of 16 days and an Activity (Rattus norvegicus [16]) of 582.33 g. The MIC (Pseudomonas aeruginosa [25]) was 16 µg/mL (≈ 55.9 µM), the MIC (Klebsiella pneumoniae [4]) was 25 µg/mL (≈ 87.4 µM) and the MIC (Escherichia coli [5]) was 25 µg/mL (≈ 87.4 µM). The MIC (Staphylococcus aureus [6]) was 8 µg/mL (≈ 28 µM), the MIC (Streptococcus pyogenes [7]) was 12.5 µg/mL (≈ 43.7 µM) and the MIC (Bacillus subtilis [8]) was 16.2 µg/mL (≈ 56.8 µM). The zone of inhibition at 10000 µg/mL (Pseudomonas aeruginosa [26]) was 12.2 mm, the zone of inhibition at 10000 µg/mL (Klebsiella pneumoniae [27]) was 14.5 mm and the zone of inhibition at 10000 µg/mL (Escherichia coli [28]) was 17.2 mm. For the same compound, the zone of inhibition at 10000 µg/mL (Staphylococcus aureus [29]) was 22.8 mm, the zone of inhibition at 10000 µg/mL (Streptococcus pyogenes [30]) was 19.5 mm and the zone of inhibition at 10000 µg/mL (Bacillus subtilis [31]) was 20.6 mm. For the same compound, the Activity (Nucleic Acid [41]) was 18.2%, the Activity (Nucleic Acid [33]) was 25.1% and the Tm (Calf thymus DNA [34]) was 58 °C. The Activity (Calf thymus DNA [35]) was “Active”, the Activity [1] was 76% and the Activity [2] was 74%. For the same compound, the Activity [3] was 61%, the Activity [36] was “Active” and the Kb (Nucleic Acid [39]) was 3.8 ×10⁶ /M. The Activity [40] was “Dose-dependent effect”.
